# Laboratory results taken from patent US7820078B2, “Layer configuration with improved stability to sunlight exposure” (Agfa Graphics, N.V., priority 2007, dated 2010).
# Conditions: cited from earlier work
row,Structure (SMILES),pKa
1,Sc1nnnn1-c1ccccc1 [1-phenyl-5-mercaptotetrazole],2.30
2,Cc1nc2ccccc2[nH]1 [2-methylbenzimidazole],6.96
3,CC(C)N [isopropylamine],10.63
4,c1ccc2cnccc2c1 [isoquinoline],5.2
5,c1cn[nH]c1 [pyrazole],2.53

# Conditions: not given
row,Structure (SMILES),melting point [°C]
1,Oc1ccc2ccccc2c1O,101 to 103
